This assay addresses Sodium channel protein type 9 subunit alpha (Homo sapiens, UniProt Q15858). Briefly: Inhibition of human Nav1.7 expressed in HEK293 cells by automated electrophysiological patch clamp assay. Format: cell-based. On the technique in general: In patch-clamp work, channel activity is measured electrically.

Chain of Sodium channel protein type 9 subunit alpha (Q15858 whole entry): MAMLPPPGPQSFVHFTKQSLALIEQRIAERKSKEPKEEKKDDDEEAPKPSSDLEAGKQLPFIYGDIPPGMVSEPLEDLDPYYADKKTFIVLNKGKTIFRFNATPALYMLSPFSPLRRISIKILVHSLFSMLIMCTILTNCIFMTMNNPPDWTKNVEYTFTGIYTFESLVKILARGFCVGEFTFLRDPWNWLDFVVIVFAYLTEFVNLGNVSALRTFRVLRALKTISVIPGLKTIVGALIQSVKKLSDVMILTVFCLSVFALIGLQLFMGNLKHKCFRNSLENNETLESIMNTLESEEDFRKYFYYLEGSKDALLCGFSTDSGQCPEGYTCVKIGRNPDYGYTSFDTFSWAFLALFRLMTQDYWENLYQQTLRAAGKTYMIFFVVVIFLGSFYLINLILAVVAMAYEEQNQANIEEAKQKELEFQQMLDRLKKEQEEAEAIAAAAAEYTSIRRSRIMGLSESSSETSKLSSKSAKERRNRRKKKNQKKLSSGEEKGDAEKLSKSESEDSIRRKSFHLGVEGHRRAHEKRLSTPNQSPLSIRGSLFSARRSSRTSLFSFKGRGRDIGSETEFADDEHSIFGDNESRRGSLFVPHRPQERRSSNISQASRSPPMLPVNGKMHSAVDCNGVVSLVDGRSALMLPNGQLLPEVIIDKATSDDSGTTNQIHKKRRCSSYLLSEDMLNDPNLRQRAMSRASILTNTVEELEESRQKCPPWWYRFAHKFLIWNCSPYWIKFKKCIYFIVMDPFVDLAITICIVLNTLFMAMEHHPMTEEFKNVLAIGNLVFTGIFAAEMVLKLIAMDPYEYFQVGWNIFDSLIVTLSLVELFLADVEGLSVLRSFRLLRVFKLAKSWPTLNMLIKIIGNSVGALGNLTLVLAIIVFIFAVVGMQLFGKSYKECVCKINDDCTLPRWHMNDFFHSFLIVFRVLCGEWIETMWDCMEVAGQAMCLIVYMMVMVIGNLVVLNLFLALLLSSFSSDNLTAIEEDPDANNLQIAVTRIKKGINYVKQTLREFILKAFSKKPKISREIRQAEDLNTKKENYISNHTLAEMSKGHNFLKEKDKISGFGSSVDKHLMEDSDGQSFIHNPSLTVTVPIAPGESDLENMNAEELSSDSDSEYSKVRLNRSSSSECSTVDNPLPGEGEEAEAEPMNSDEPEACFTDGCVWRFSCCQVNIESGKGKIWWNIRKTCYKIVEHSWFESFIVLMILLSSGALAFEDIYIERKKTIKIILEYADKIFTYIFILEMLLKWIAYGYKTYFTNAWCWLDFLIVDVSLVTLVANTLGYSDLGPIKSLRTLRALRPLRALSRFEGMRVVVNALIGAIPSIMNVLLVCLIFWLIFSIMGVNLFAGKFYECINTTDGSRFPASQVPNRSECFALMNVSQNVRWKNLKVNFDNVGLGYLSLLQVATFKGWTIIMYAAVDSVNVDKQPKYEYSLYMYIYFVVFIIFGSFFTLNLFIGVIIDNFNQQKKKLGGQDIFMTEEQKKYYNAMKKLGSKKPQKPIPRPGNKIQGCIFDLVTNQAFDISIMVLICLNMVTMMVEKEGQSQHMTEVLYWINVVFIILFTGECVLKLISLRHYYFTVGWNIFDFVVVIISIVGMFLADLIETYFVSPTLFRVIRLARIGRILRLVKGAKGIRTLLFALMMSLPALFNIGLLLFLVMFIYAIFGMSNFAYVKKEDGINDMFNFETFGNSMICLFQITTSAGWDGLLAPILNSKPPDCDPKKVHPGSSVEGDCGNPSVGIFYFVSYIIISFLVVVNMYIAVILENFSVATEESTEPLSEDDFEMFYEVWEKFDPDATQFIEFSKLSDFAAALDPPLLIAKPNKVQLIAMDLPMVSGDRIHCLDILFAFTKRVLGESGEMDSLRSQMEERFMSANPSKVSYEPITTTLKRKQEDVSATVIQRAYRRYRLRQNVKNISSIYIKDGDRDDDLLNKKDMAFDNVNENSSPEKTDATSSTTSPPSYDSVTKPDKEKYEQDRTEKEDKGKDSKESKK

As for `NC(=O)[C@@H]1CC[C@H](c2ccc(Oc3nnnn3-c3cc(F)ccc3OC(F)(F)F)cc2)N1`, the midpoint of inhibition, the IC50, lay at 570 nM.
In the case of `Cc1ccc(Cl)cc1-n1nnnc1Oc1ccc([C@H]2CC[C@@H](C(N)=O)N2)cc1` it was 720 nM.
To `NC(=O)[C@@H]1CC[C@H](c2ccc(Oc3nnnn3-c3ccccc3OC(F)(F)F)cc2)N1` belongs 1100 nM; to `Cc1cccc(C)c1-n1nnnc1Oc1ccc([C@H]2CC[C@@H](C(N)=O)N2)cc1`, 890 nM.
To `CN1[C@@H](c2ccc(Oc3nnnn3-c3ccccc3C(F)(F)F)cc2)CC[C@H]1C(N)=O` belongs 1800 nM; to `CN(C)C(=O)[C@@H]1CC[C@H](c2ccc(Oc3nnnn3-c3ccccc3OC(F)(F)F)cc2)N1`, 1800 nM.
As to `NC(=O)[C@@H]1CC[C@H](c2ccc(Oc3nnnn3-c3cc(Cl)ccc3OC(F)(F)F)cc2)N1`, 680 nM corresponded to half-maximal inhibition (IC50).
Take `Cc1cc(C(F)(F)F)ccc1-n1nnnc1Oc1ccc([C@H]2CC[C@@H](C(N)=O)N2)cc1`: 1200 nM corresponded to half-maximal inhibition (IC50).
In the case of `COc1ccc(C)c(-n2nnnc2Oc2ccc([C@H]3CC[C@@H](C(N)=O)N3)cc2)c1` it was 1100 nM; in that of `CC(C)(C)c1ccccc1-n1nnnc1Oc1ccc([C@H]2CC[C@@H](C(N)=O)N2)cc1`, 1500 nM.
